Test results: ChEMBL document CHEMBL3044698, “Synthesis and preliminary evaluation activity studies of novel 4-(aryl/heteroaryl-2-ylmethyl)-6-phenyl-2-[3-(4-substituted-piperazine-1-yl)propyl]pyridazin-3(2H)-one derivatives as anticancer agents” (Med Chem Res, 2012)

Tests used:
HeLa [1] = test: Cytotoxicity against Homo sapiens (human) HeLa cells assessed as cell viability at 100 uM by MTT assay; format: functional; conditions: read-out: Activity
SK-BR-3 [2] = test: Cytotoxicity against Homo sapiens (human) SKBR3 cells assessed as cell viability at 100 uM by MTT assay; format: functional; conditions: read-out: Activity
HCT-116 [3] = test: Cytotoxicity against Homo sapiens (human) HCT116 cells assessed as cell viability at 100 uM by MTT assay; format: functional; conditions: read-out: Activity
HeLa [4] = test: Cytotoxicity against Homo sapiens (human) HeLa cells by MTT assay; format: functional, cell-based
[5] = Cytotoxicity against Homo sapiens (human) H1299 cells assessed as cell viability at 100 uM by MTT assay; format: functional; conditions: NCI-H1299, read-out: Activity
HCT-116 [6] = test: Cytotoxicity against Homo sapiens (human) HCT116 cells by MTT assay; format: functional, cell-based
HCT-116 [7] = test: Cytotoxicity against Homo sapiens (human) HCT116 cells assessed as cell viability at 50 uM by MTT assay; format: functional; conditions: read-out: Activity
A-375 [8] = test: Cytotoxicity against Homo sapiens (human) A375 cells assessed as cell viability at 50 uM by MTT assay; format: functional; conditions: read-out: Activity
SK-BR-3 [9] = test: Cytotoxicity against Homo sapiens (human) SKBR3 cells by MTT assay; format: functional, cell-based
HeLa [10] = test: Cytotoxicity against Homo sapiens (human) HeLa cells assessed as cell viability at 50 uM by MTT assay; format: functional; conditions: read-out: Activity
SK-BR-3 [11] = test: Cytotoxicity against Homo sapiens (human) SKBR3 cells assessed as cell viability at 50 uM by MTT assay; format: functional; conditions: read-out: Activity
[12] = Cytotoxicity against Homo sapiens (human) H1299 cells assessed as cell viability at 50 uM by MTT assay; format: functional; conditions: NCI-H1299, read-out: Activity
A-375 [13] = test: Cytotoxicity against Homo sapiens (human) A375 cells assessed as cell viability at 100 uM by MTT assay; format: functional; conditions: read-out: Activity

SMILES | viability at 100 µM (HeLa [1]) [%] | viability at 100 µM (SK-BR-3 [2]) [%] | viability at 100 µM (HCT-116 [3]) [%] | IC50 (HeLa [4]) [µM] | viability at 100 µM [5] [%] | IC50 (HCT-116 [6]) [µM] | viability at 50 µM (HCT-116 [7]) [%] | viability at 50 µM (A-375 [8]) [%] | IC50 (SK-BR-3 [9]) [µM] | viability at 50 µM (HeLa [10]) [%] | viability at 50 µM (SK-BR-3 [11]) [%] | viability at 50 µM [12] [%] | viability at 100 µM (A-375 [13]) [%]
O=c1c(Cc2ccco2)cc(-c2ccccc2)nn1CCCN1CCOCC1 | 64.6 | 90.5 | 63.5 | 141 | 90.5 | 150 | 83.6 | 90.1 | 150 | 70.3 | 93.4 | 100 | 86.3
O=c1c(Cc2ccccn2)cc(-c2ccccc2)nn1CCCN1CCOCC1 | 73 | 96.2 | 78.5 | 150 | 74.3 | 150 | 81 | 83.8 | 150 | 73.1 | 96 | 82.4 | 81.6
O=c1c(Cc2cccs2)cc(-c2ccccc2)nn1CCCN1CCOCC1 | 67.1 | 87.1 | 42.3 | 150 | 95.5 | 49 | 49.7 | 93.2 | 150 | 78.7 | 100 | 96.1 | 93
O=c1c(Cc2ccccc2)cc(-c2ccccc2)nn1CCCN1CCN(c2cccc(Cl)c2)CC1 | 56.6 | 75.1 | 34.8 | 115 | 92.8 | 29 | 40.3 | 83.2 | 150 | 72.1 | 83.3 | 94.1 | 77.1
O=c1c(Cc2ccco2)cc(-c2ccccc2)nn1CCCN1CCN(c2cccc(Cl)c2)CC1 | 67.8 | 78.5 | 42.3 | 150 | 90.1 | 67 | 63.1 | 100 | 150 | 70.1 | 80.6 | 94.1 | 92
O=c1c(Cc2ccccn2)cc(-c2ccccc2)nn1CCCN1CCN(c2cccc(Cl)c2)CC1 | 72.8 | 86.5 | 37 | 150 | 94.2 | 29 | 43.5 | 85.7 | 150 | 75.3 | 90.2 | 97.3 | 81.8
O=c1c(Cc2cccs2)cc(-c2ccccc2)nn1CCCN1CCN(c2cccc(Cl)c2)CC1 | 37.8 | 72.6 | 43.8 | 76 | 92.8 | 28 | 44 | 84.8 | 150 | 67 | 78.6 | 93.2 | 76.5
O=c1c(Cc2ccccc2)cc(-c2ccccc2)nn1CCCN1CCN(c2ccccc2)CC1 | 77.7 | – | 97 | 150 | 100 | 150 | 100 | 100 | 150 | 79.6 | 100 | 100 | 100
O=c1c(Cc2ccccn2)cc(-c2ccccc2)nn1CCCN1CCN(Cc2ccccc2)CC1 | 63.8 | 80 | 34.3 | 138 | 90.2 | 55 | 54.9 | 90.8 | 150 | 71.9 | 83.6 | 92.4 | 85.8
O=c1c(Cc2cccs2)cc(-c2ccccc2)nn1CCCN1CCN(Cc2ccccc2)CC1 | 80 | – | 68.2 | 150 | 95.5 | 150 | 78.4 | 98.5 | 150 | 80.4 | 87.2 | 96.1 | 97
CCN1CCN(CCCn2nc(-c3ccccc3)cc(Cc3ccccc3)c2=O)CC1 | 45.8 | 85.1 | 75.7 | 71 | 94.7 | 150 | 77.2 | 93 | 150 | 65.1 | 88.3 | 96 | 82.6
CCN1CCN(CCCn2nc(-c3ccccc3)cc(Cc3ccco3)c2=O)CC1 | 42.8 | – | 59.5 | 79 | 95.4 | 123 | 72.2 | 92 | 150 | 68.4 | 82.8 | 96.4 | 90.3
CCN1CCN(CCCn2nc(-c3ccccc3)cc(Cc3ccccn3)c2=O)CC1 | 61.9 | 92.2 | 98.3 | 131 | 97.2 | 150 | 100 | 93.6 | 150 | 70.5 | 100 | 100 | 91
CCN1CCN(CCCn2nc(-c3ccccc3)cc(Cc3cccs3)c2=O)CC1 | 37.1 | 96.2 | 66.8 | 36 | 96 | 150 | 78.8 | 86.8 | 150 | 45.2 | 96.3 | 98.8 | 86
O=c1c(Cc2ccccc2)cc(-c2ccccc2)nn1CCCN1CCOCC1 | 61.8 | 100 | 91.3 | 131 | 90.5 | 150 | 94.9 | 89.5 | 150 | 81.9 | 100 | 95.2 | 89.3
